Results: the CheMixHub viscosity set
± gives the uncertainty stated by the source.

Assay: xn = mol fraction of the nth substance listed

CCCCCO + CC#N
viscosity [mPa·s], 101 kPa
Settings	298.15 K	303.15 K	308.15 K
x2 = 0.1083	2.485 ± 0.22	1.966 ± 0.18	1.752 ± 0.16
x2 = 0.1933	1.918 ± 0.17	1.703 ± 0.15	1.519 ± 0.14
x2 = 0.2503	1.717 ± 0.15	1.477 ± 0.14	1.334 ± 0.12
x2 = 0.3407	1.33 ± 0.12	1.2 ± 0.11	1.088 ± 0.1
x2 = 0.4797	0.963 ± 0.093	0.879 ± 0.086	0.804 ± 0.079
x2 = 0.5899	0.747 ± 0.075	0.688 ± 0.07	0.636 ± 0.065
x2 = 0.6833	0.619 ± 0.064	0.569 ± 0.06	0.527 ± 0.056
x2 = 0.7642	0.525 ± 0.056	0.486 ± 0.053	0.458 ± 0.05
x2 = 0.8347	0.452 ± 0.05	0.428 ± 0.048	0.41 ± 0.046
x2 = 0.8958	0.418 ± 0.047	0.392 ± 0.045	0.369 ± 0.043
x2 = 0.9508	0.374 ± 0.043	0.357 ± 0.042	0.342 ± 0.041

CN(C)C=O + CC#N
Settings	viscosity [mPa·s]
298.15 K, 101 kPa, x2 = 0.0113	0.794 ± 0.0094
298.15 K, 101 kPa, x2 = 0.0144	0.792 ± 0.0094
298.15 K, 101 kPa, x2 = 0.0841	0.761 ± 0.009
298.15 K, 101 kPa, x2 = 0.103	0.747 ± 0.0089
298.15 K, 101 kPa, x2 = 0.1527	0.712 ± 0.0085
298.15 K, 101 kPa, x2 = 0.2044	0.685 ± 0.0082
298.15 K, 101 kPa, x2 = 0.2682	0.654 ± 0.0078
298.15 K, 101 kPa, x2 = 0.3131	0.615 ± 0.0074
298.15 K, 101 kPa, x2 = 0.3696	0.598 ± 0.0072
298.15 K, 101 kPa, x2 = 0.3798	0.603 ± 0.0073
298.15 K, 101 kPa, x2 = 0.4759	0.552 ± 0.0067
298.15 K, 101 kPa, x2 = 0.5317	0.529 ± 0.0064
298.15 K, 101 kPa, x2 = 0.5759	0.492 ± 0.006
298.15 K, 101 kPa, x2 = 0.6348	0.448 ± 0.0055
298.15 K, 101 kPa, x2 = 0.6876	0.499 ± 0.0061
298.15 K, 101 kPa, x2 = 0.743	0.408 ± 0.0051
298.15 K, 101 kPa, x2 = 0.7906	0.382 ± 0.0048
298.15 K, 101 kPa, x2 = 0.8453	0.382 ± 0.0048
298.15 K, 101 kPa, x2 = 0.8954	0.345 ± 0.0043
298.15 K, 101 kPa, x2 = 0.9485	0.346 ± 0.0044
298.15 K, 101 kPa, x2 = 0.9723	0.333 ± 0.0042
303.15 K, 101 kPa, x2 = 0.1176	0.6994 ± 0.018
303.15 K, 101 kPa, x2 = 0.2399	0.6372 ± 0.017
303.15 K, 101 kPa, x2 = 0.4348	0.5495 ± 0.015
303.15 K, 101 kPa, x2 = 0.5933	0.4816 ± 0.013
303.15 K, 101 kPa, x2 = 0.7275	0.4283 ± 0.011
303.15 K, 101 kPa, x2 = 0.8419	0.3842 ± 0.01
303.15 K, 101 kPa, x2 = 0.9418	0.3496 ± 0.0096
303.15 K, 101.33 kPa, x2 = 0.0953	0.7392 ± 0.005
303.15 K, 101.33 kPa, x2 = 0.1981	0.6991 ± 0.0048
303.15 K, 101.33 kPa, x2 = 0.3038	0.6537 ± 0.0046
303.15 K, 101.33 kPa, x2 = 0.3988	0.6046 ± 0.0044
303.15 K, 101.33 kPa, x2 = 0.5	0.5476 ± 0.0041
303.15 K, 101.33 kPa, x2 = 0.6013	0.494 ± 0.0039
303.15 K, 101.33 kPa, x2 = 0.6983	0.4471 ± 0.0037
303.15 K, 101.33 kPa, x2 = 0.8009	0.4023 ± 0.0035
303.15 K, 101.33 kPa, x2 = 0.8992	0.3607 ± 0.0034

ClC(Cl)=C(Cl)Cl + CC#N
303.15 K, 101.32 kPa
Settings	viscosity [mPa·s]
x2 = 0.1294	0.7489 ± 0.009
x2 = 0.1929	0.7334 ± 0.0089
x2 = 0.3101	0.699 ± 0.0086
x2 = 0.4022	0.6632 ± 0.0083
x2 = 0.4671	0.631 ± 0.008
x2 = 0.5673	0.5728 ± 0.0076
x2 = 0.6707	0.505 ± 0.0071
x2 = 0.7358	0.4619 ± 0.0067
x2 = 0.846	0.3947 ± 0.0062
x2 = 0.9295	0.3522 ± 0.0058

c1ccccc1 + CC#N
101 kPa
Settings	viscosity [mPa·s]
298.15 K, x2 = 0.0325	0.5825 ± 0.007
298.15 K, x2 = 0.0341	0.58 ± 0.007
298.15 K, x2 = 0.0416	0.5745 ± 0.0069
298.15 K, x2 = 0.0854	0.574 ± 0.0069
298.15 K, x2 = 0.142	0.5155 ± 0.0063
298.15 K, x2 = 0.2097	0.493 ± 0.006
298.15 K, x2 = 0.2578	0.4835 ± 0.0059
298.15 K, x2 = 0.3076	0.479 ± 0.0059
298.15 K, x2 = 0.3588	0.459 ± 0.0056
298.15 K, x2 = 0.4192	0.4365 ± 0.0054
298.15 K, x2 = 0.4751	0.4295 ± 0.0053
298.15 K, x2 = 0.5205	0.4045 ± 0.005
298.15 K, x2 = 0.5786	0.394 ± 0.0049
298.15 K, x2 = 0.6344	0.388 ± 0.0048
298.15 K, x2 = 0.6908	0.375 ± 0.0047
298.15 K, x2 = 0.7377	0.379 ± 0.0047
298.15 K, x2 = 0.7901	0.369 ± 0.0047
298.15 K, x2 = 0.7943	0.3555 ± 0.0045
298.15 K, x2 = 0.8416	0.3535 ± 0.0044
298.15 K, x2 = 0.8962	0.3455 ± 0.0044
298.15 K, x2 = 0.9472	0.3275 ± 0.0041
308.15 K, x1 = 0.1018	0.3278 ± 0.0078
308.15 K, x1 = 0.2042	0.3407 ± 0.008
308.15 K, x1 = 0.303	0.3576 ± 0.0082
308.15 K, x1 = 0.4008	0.378 ± 0.0086
308.15 K, x1 = 0.4892	0.3939 ± 0.0088
308.15 K, x1 = 0.5921	0.4163 ± 0.0091
308.15 K, x1 = 0.6906	0.4413 ± 0.0095
308.15 K, x1 = 0.8017	0.4762 ± 0.01
308.15 K, x1 = 0.8951	0.4954 ± 0.01
